In US9024021B2, “Diarylacetylene hydrazide containing tyrosine kinase inhibitors” (Sun Pharma Advanced Research Company Ltd., priority 2011, dated 2015):

Columns and labels:
Abl (M351T) (human) = target: T1, Abl (M351T) (human) (Homo sapiens, UniProt P00519, M351T); assay: Mutated Abl kinase inhibition (in vitro), M351T; format: biochemical; settings: 100 nM
T1 construct: purchased Millipore Pharma Services (contract assay, UK pharmacology laboratory)
Description: (§1) The kinase assays were performed by Millipore Pharma Services at their UK pharmacology laboratory.
(§2) In a final reaction volume of 25 μL, Abl (human) (5-10 mU) is incubated with 8 mM MOPS pH7.0, 0.2 mM EDTA, 50 μM […], 10 mM Mg(OAc)2 and [γ-^33P-ATP] [specific activity approx. 500 cpm/pmol, concentration as required). The reaction is initiated by the addition of the MgATP mix. After incubation for 40 minutes at room temperature, the reaction is stopped by the addition of 5 μL of a 3% phosphoric acid solution. 10 μL of the reaction is then spotted onto a P30 filtermat and washed three times for 5 minutes in 75 mM phosphoric acid and once in methanol prior to drying and scintillation counting.
(§3) The procedure remains exactly the same as described earlier for Abl kinase, the Abl (human) kinase being replaced by mutated Abl (Q252H) (human), Abl (Y253F) (human), Abl (T315I) (human), Abl (M351T) (human) and Abl (H396P) (human) kinases.
(§4) Within each kinase assay, percent of control values were calculated for each test compound raw data point based on mean minimum (0%) and maximum (100%) controls (n=4 per control) for that kinase (sample−mean minimum/mean maximum−mean minimum×100%). Percent inhibition was calculated from these values (100−mean percent of control).

Abl (Y253F) (human) = target: T2, Abl (Y253F) (human) (Homo sapiens, UniProt P00519, Y253F); assay: Mutated Abl kinase inhibition (in vitro), Y253F; format: biochemical; settings: 100 nM
T2 construct: purchased Millipore Pharma Services (contract assay, UK pharmacology laboratory)
Description: as §1, §2, §3, §4

Abl (H396P) (human) = target: T3, Abl (H396P) (human) (Homo sapiens, UniProt P00519, H396P); assay: Mutated Abl kinase inhibition (in vitro), H396P; format: biochemical; settings: 100 nM
T3 construct: purchased Millipore Pharma Services (contract assay, UK pharmacology laboratory)
Description: as §1, §2, §3, §4

Lck (human) = target: T4, Lck (human) (Homo sapiens, UniProt P06239); assay: Lck kinase inhibition (in vitro); format: biochemical; settings: read-out: % Inhibition at 100 nM Lck
T4 construct: purchased Millipore Pharma Services (contract assay, UK pharmacology laboratory)
Description: as §1
In a final reaction volume of 25 μL, Lck (human) (5-10 mU) is incubated with 50 mM Tris pH 7.5, 0.1 mM EGTA, 0.1 mM Na3VO4, 250 μM […] [Cdc2 peptide), 10 mM Mg(OAc)2 and [γ-^33P-ATP] [specific activity approx. 500 cpm/pmol, concentration as required). The reaction is initiated by the addition of the MgATP mix. After incubation for 40 minutes at room temperature, the reaction is stopped by the addition of 5 μL of a 3% phosphoric acid solution. 10 μL of the reaction is then spotted onto a P30 filtermat and washed three times for 5 minutes in 75 mM phosphoric acid and once in methanol prior to drying and scintillation counting.
as §4

Abl (Q252H) (human) = target: T5, Abl (Q252H) (human) (Homo sapiens, UniProt P00519, Q252H); assay: Mutated Abl kinase inhibition (in vitro), Q252H; format: biochemical; settings: 100 nM
T5 construct: purchased Millipore Pharma Services (contract assay, UK pharmacology laboratory)
Description: as §1, §2, §3, §4

Lyn (human) = target: T6, Lyn (human) (Homo sapiens, UniProt P07948); assay: Lyn kinase inhibition (in vitro); format: biochemical; settings: read-out: % Inhibition at 100 nM Lyn
T6 construct: purchased Millipore Pharma Services (contract assay, UK pharmacology laboratory)
Description: as §1
In a final reaction volume of 25 μL, Lyn (human) (5-10 mU) is incubated with 50 mM Tris pH 7.5, 0.1 mM EGTA, 0.1 mM Na3VO4, 0.1% β-mercaptoethanol, 0.1 mg/ml poly(Glu, tyr) 4:1, 10 mM Mg(OAc)2 and [γ-^33P-ATP] [specific activity approx. 500 cpm/pmol, concentration as required). The reaction is initiated by the addition of the MgATP mix. After incubation for 40 minutes at room temperature, the reaction is stopped by the addition of 5 μL of a 3% phosphoric acid solution. 10 μL of the reaction is then spotted onto a filtermat A and washed three times for 5 minutes in 75 mM phosphoric acid and once in methanol prior to drying and scintillation counting.
as §4

K562 cells = assay: In-vitro cell proliferation assay (MTT), K562 cells; format: cell-based; settings: Homo sapiens; for inhibition at 0.01 µM: 10 nM; for inhibition at 0.1 µM: 100 nM
Description: In-Vitro Cell Proliferation Assay
K562/U937 cells (2×10^4 per well) were incubated with the test compounds/vehicle in a total volume of 200 μL of media at 37° C. with 5% CO2. […] The cells were incubated overnight at 37° C. with 5% CO2. On Day 5 the optical density was measured at 570 nm with 630 nm as reference wavelength. The optical density in the vehicle treated wells was compared with that of the test compound treated wells.

Abl (T315I) (human) = target: T7, Abl (T315I) (human) (Homo sapiens, UniProt P00519, T315I); assay: Abl-T315I kinase inhibition (in vitro); format: biochemical; settings: for inhibition at 0.1 µM: 100 nM; for inhibition at 1 µM: 1000 nM
T7 construct: purchased Millipore Pharma Services (contract assay, UK pharmacology laboratory)
Description: as §1
[specific activity approx. 500 cpm/pmol, concentration as required). The reaction is initiated by the addition of the MgATP mix. After incubation for 40 minutes at room temperature, the reaction is stopped by the addition of 5 μL of a 3% phosphoric acid solution. 10 μL of the reaction is then spotted onto a P30 filtermat and washed three times for 5 minutes in 75 mM phosphoric acid and once in methanol prior to drying and scintillation counting.
as §4

T4 sequence (P06239 whole entry): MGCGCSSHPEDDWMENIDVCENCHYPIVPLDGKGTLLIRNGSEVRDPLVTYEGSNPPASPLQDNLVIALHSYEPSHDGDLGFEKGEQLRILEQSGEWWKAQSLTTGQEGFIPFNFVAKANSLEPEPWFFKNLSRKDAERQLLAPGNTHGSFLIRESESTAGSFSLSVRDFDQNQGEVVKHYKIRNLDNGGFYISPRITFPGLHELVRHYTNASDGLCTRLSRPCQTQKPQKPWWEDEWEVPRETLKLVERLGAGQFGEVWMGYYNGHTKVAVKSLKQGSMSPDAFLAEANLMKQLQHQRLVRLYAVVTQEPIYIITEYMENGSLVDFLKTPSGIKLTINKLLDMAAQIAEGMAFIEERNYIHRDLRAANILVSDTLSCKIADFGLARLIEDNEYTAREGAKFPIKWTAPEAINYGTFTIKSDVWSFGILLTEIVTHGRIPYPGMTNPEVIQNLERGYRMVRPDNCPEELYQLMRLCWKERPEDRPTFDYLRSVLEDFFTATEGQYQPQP
T6 sequence (P07948 whole entry): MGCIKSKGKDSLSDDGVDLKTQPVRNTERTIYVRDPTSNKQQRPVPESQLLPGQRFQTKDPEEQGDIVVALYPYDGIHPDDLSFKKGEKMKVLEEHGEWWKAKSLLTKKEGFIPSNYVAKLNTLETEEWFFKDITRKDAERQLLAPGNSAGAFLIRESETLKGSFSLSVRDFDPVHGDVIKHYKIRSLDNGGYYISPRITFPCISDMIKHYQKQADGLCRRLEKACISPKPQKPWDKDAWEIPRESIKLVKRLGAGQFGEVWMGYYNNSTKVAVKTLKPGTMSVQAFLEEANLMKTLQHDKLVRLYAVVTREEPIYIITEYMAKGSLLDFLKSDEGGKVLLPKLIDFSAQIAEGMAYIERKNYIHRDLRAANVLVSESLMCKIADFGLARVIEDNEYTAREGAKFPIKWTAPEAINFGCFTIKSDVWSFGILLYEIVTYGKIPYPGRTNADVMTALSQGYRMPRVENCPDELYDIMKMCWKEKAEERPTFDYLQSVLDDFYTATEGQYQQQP

inhibition at 0.1 µM (Abl (M351T) (human)) [%] | inhibition at 0.1 µM (Abl (Y253F) (human)) [%] | inhibition at 0.1 µM (Abl (H396P) (human)) [%] | inhibition at 0.1 µM (Lck (human)) [%] | inhibition at 0.1 µM (Abl (Q252H) (human)) [%] | inhibition at 0.1 µM (Lyn (human)) [%] | inhibition at 0.1 µM (Abl (T315I) (human)) [%] | inhibition at 1 µM (Abl (T315I) (human)) [%] | SMILES | inhibition at 0.01 µM (K562 cells) [%] | inhibition at 0.1 µM (K562 cells) [%]
100 | 101 | 99 | 84 | 100 | 97 |  |  | Cc1ccc(C(=O)NNC(=O)c2c(C)cccc2Cl)cc1C#Cc1cnc2ccccc2c1 [I.2, N′-(2-Chloro-6-methylbenzoyl)-4-methyl-3-[2-(3-quinolyl)ethynyl]benzohydrazide] |  | 
99 | 98 | 100 | 81 | 100 | 97 | 90 | 100 | Cc1ccc(C(=O)NNC(=O)c2c(C)cccc2I)cc1C#Cc1cnc2ccccc2c1 [I.4, N′-(2-Iodo-6-methylbenzoyl)-4-methyl-3-[2-(3-quinolyl)ethynyl]benzohydrazide] | 102 | 100
100 | 98 | 99 | 65 | 98 | 74 | 70 | 93 | Cc1ccc(C(=O)NNC(=O)c2c(C)cccc2Cl)cc1C#Cc1cnc2cccnn12 [I.16, N′-(2-Chloro-6-methylbenzoyl)-3-[2-(imidazo[1,2-b]pyridazin-3-yl)ethynyl]-4-methylbenzohydrazide] | 104 | 102
